Assay results taken from patent US9675627B2, “Dosing regimens for treating and/or preventing cerebral amyloidoses” (Amicus Therapeutics, Inc., priority 2014, dated 2017).

Experiments:
β-hex = biological target: T1, β-hex; test: β-hex enzymatic inhibition in fibroblast lysate (4-MU substrate); assay type: biochemical, human
T1 construct: other: pH 5; other: pH 7
Source text: Enzymatic activity measurements were done in duplicate.

[1] = tested on: Dutch APP^E693Q transgenic mice; test: Novel object recognition (NOR); assay type: in vivo; conditions: 3-month course, higher doses (30 or 100 mg/kg)
Experimental: (§1) The generation and characterization of Dutch APPE693Q mice transgenic mice is described in Gandy, S., et al. Days to criterion as an indicator of toxicity associated with human Alzheimer amyloid-beta oligomers. Annals of neurology 68, 220-230 (2010). 3-month-old male Dutch APP^E693Q mice transgenic mice were orally gavaged 5 days/week with either vehicle (water) (n=15) or 3, 10, 30 or 100 mg/kg AdDNJ for 3 months (n=13). All animal studies were approved and conducted in accordance with the Institutional Animal Care and Usage Committee. Mice were kept in a pathogen-free environment, on a 12-hour light/dark cycle and given ad libitum access to food and water. At 6 month of age treatment groups, and a 3-month-old untreated baseline group (n=15), were cognitively assessed in the NOR, EPM and FC tests. 48 hours following the final dose mice were perfused with ice-cold 1×PBS. The brain was removed and dissected into two hemispheres. One half was snap-frozen on dry ice and stored at −80° C. for biochemistry; the other half was post-fixed in 4% paraformaldehyde then sagittally sectioned on a vibratome into 30 μm sections and stored at 4° C. in storage buffer until histological analyses. […]
On day 1, the mouse was placed in the NOR arena (20 cm diameter) for 10 min to acclimatize. […] The duration spent exploring the objects was then measured using ANY-maze (Stoelting, Wood Dale, Ill.).

[2] = tested on: Dutch APP^E693Q transgenic mice; test: Elevated plus maze (EPM); assay type: in vivo; conditions: 3-month course, 3, 10, 30 or 100 mg/kg
Experimental: as §1, with “hemispheres.” for “hemispheres. One half was snap-frozen on dry ice and stored at −80° C. for biochemistry; the other half was post-fixed in 4% paraformaldehyde then sagittally sectioned on a vibratome into 30 μm sections and stored at 4° C. in storage buffer until histological analyses.”
The maze in the configuration of a+ and comprised two open arms (35×5×0 cm) across from each other and perpendicular to two closed arms (35×5×16 cm) with a central neutral zone (Stoelting, Wood Dale, Ill.). […] Each trial was videotaped overhead and scored for amount of time spent in the open and closed arms using ANY-maze (Stoelting, Wood Dale, Ill.). […]

O-GlcNAcase = biological target: T2, O-GlcNAcase (Homo sapiens, UniProt O60502); test: Cellular O-GlcNAcase activity (protein O-GlcNAc Western blot) in fibroblasts and SH-SY5Y cells; assay type: cell-based; conditions: concentrations up to 100 μM
T2 construct: host or cells: wild-type fibroblasts AG07059 and SH-SY5Y cells
T2 sequence (O60502 1-916): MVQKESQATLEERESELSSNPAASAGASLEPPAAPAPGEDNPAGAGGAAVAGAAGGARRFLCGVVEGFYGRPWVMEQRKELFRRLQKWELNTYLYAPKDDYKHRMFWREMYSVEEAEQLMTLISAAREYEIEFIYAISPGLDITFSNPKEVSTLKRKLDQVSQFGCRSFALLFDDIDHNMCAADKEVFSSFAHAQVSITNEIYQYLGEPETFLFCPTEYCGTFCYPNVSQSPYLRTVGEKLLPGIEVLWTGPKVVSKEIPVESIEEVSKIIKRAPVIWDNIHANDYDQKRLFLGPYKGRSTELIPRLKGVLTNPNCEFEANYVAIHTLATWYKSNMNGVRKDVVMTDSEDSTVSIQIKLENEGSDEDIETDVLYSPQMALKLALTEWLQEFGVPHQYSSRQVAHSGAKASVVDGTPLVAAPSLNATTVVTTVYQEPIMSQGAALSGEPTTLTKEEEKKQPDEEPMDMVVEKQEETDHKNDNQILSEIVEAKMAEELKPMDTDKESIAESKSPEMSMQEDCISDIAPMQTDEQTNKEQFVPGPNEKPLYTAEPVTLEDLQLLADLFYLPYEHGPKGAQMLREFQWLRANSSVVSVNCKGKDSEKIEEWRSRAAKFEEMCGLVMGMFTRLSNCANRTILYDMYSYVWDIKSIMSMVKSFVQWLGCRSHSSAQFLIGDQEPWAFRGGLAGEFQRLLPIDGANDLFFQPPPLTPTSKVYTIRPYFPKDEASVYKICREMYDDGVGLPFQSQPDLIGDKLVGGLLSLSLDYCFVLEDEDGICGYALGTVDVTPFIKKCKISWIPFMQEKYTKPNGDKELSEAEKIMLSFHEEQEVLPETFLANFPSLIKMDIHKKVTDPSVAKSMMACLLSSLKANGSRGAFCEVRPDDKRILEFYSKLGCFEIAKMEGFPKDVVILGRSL
Experimental: Effect of AdDNJ on cellular O-GlcNAcase activity was tested in both wild-type fibroblast (AG07059, Coriell) and SH-SY5Y cells. Fibroblasts were incubated with or without 10 μM AdDNJ or Thiamet G in complete media for 24 h at 37° C. in a humidified 8% CO2 incubator. For SH-SY5Y cells, multiple concentrations (0 μM to 100 μM) of AdDNJ and Thiamet G were used. Cell pellets were lysed in RIPA buffer and total protein-associated O-GlcNAc level was measured using Western blot. Briefly, 40 μg total protein was separated, transferred to PVDF and probed with an anti O-GlcNAc antibody (18B10.C7, Pierce). Chemiluminescence was imaged using an Alpha Innotech FluoroChem Q imager and quantified by densitometry using AlphaView SA software (Alpha Innotech). The blots were stripped and re-probed with an anti-calnexin antibody (ab22595, Abcam). For O-GlcNAc quantification, whole lane O-GlcNAc densitometry was background subtracted and normalized to the calnexin load control band.

[3] = tested on: ganglioside-bound Aβ (GAβ); test: GAβ immunohistochemistry (clone 4396C); assay type: in vivo, Dutch APP^E693Q transgenic mice; conditions: 100 mg/kg, 3 months
Experimental: The generation and characterization of Dutch APPE693Q mice transgenic mice is described in Gandy, S., et al. Days to criterion as an indicator of toxicity associated with human Alzheimer amyloid-beta oligomers. Annals of neurology 68, 220-230 (2010). 3-month-old male Dutch APP^E693Q mice transgenic mice were orally gavaged 5 days/week with either vehicle (water) (n=15) or 3, 10, 30 or 100 mg/kg AdDNJ for 3 months (n=13). All animal studies were approved and conducted in accordance with the Institutional Animal Care and Usage Committee. Mice were kept in a pathogen-free environment, on a 12-hour light/dark cycle and given ad libitum access to food and water. At 6 month of age treatment groups, and a 3-month-old untreated baseline group (n=15), were cognitively assessed in the NOR, EPM and FC tests. 48 hours following the final dose mice were perfused with ice-cold 1×PBS. The brain was removed and dissected into two hemispheres. One half was snap-frozen on dry ice and stored at −80° C. for biochemistry; the other half was post-fixed in 4% paraformaldehyde then sagittally sectioned on a vibratome into 30 μm sections and stored at 4° C. in storage buffer until histological analyses.
Aβ was assessed via free-floating immunohistochemistry using mAb 6E10 (1:1000, Covance) as previously described20. GAβ was assessed via free-floating immunohistochemistry using mouse anti-GAβ, clone 4396C (1:100), a gift from Dr. Katsuhiko Yanagisawa as previously described19. Images were captured on an Olympus BX61 upright microscope with an attached Olympus DP71 camera. Integrated density of GAβ staining was measured using Image J (National Institute of Health, Bethesda, Md.).

**Q.** For `CC(=O)NC1CNC(CO)[C@@H](O)C1O` (stereo partly shown) [AdDNJ, 2-acetamido-1,2-dideoxynojirimycin], which Ki (β-hex; pH 5) is on record?
**A.** 253 nM

**Q.** What about the Ki (β-hex; pH 7) of the same molecule?
**A.** 342 nM

**Q.** What about the “learning behavior in NOR test” value [1] of the same molecule?
**A.** protection from the typical aging-related learning behavior deficits

**Q.** And the “anxiety in elevated plus maze” value [2]?
**A.** reduced anxiety at all doses tested

**Q.** What about the “inhibition of O-GlcNAcase” value (O-GlcNAcase) of the same molecule?
**A.** did not inhibit

**Q.** And the “GAβ immunoreactivity, CA1 region of the hippocampus” value [3]?
**A.** did not reach significance

**Q.** And the “GAβ immunoreactivity, lateral entorhinal cortex” value [3]?
**A.** trend toward reduction

**Q.** And the “GAβ immunoreactivity, perirhinal cortex” value [3]?
**A.** striking quantitative reduction

**Q.** And the “GAβ immunoreactivity, subiculum” value [3]?
**A.** striking quantitative reduction

**Q.** What about the “GAβ immunoreactivity, visual cortex” value [3] of the same molecule?
**A.** did not reach significance
